Data published in paper PMC7150870 (Toxins, 2020).
Marks after values point to notes of the source that are not given here.

Key:
[1] = test system: cells; conditions: cited from earlier work
[2] = test system: HEK293T; type: cell-based, human
[3] = test system: HepG2; type: cell-based, human
[4] = test system: RAW 264.7; type: cell-based, mouse
[5] = test system: HepG2, Caco-2, RAW 264.7, and HEK 293T cells; conditions: read-out: IC50 range in studied cells
[6] = test system: HEK293T cells; type: cell-based, human; conditions: read-out: IC50 halving the HEK293T cells viability
[7] = test system: HEK 293T cells; type: cell-based, human
[8] = test system: HEK293T; type: cell-based, human; remark: listed apart in the source
[9] = test system: Caco-2 cells
[10] = test system: Caco-2; type: cell-based, human

Question: Which results are given for beauvericin?
Answer: concentration with statistically significant decrease in viability of cells [1]: 3 µM; combination index, mixture of DAS (6.58 nM) [2]: 0.96 ± 0.04 Add; combination index, mixture of HT-2 (21.22 nM) [2]: 0.91 ± 0.04 Add; combination index, mixture of T-2 (3.87 nM) [2]: 0.95 ± 0.07 Add; type of interaction, mixture of DAS (6.58 nM) [2]: 0.96 ± 0.04 Add (key: Syn: Combination index (CI) < 0.9; Add: 0.9 ≤ CI ≤ 1; Ant: CI > 1); type of interaction, mixture of HT-2 (21.22 nM) [2]: 0.91 ± 0.04 Add (key: Syn: Combination index (CI) < 0.9; Add: 0.9 ≤ CI ≤ 1; Ant: CI > 1); type of interaction, mixture of T-2 (3.87 nM) [2]: 0.95 ± 0.07 Add (key: Syn: Combination index (CI) < 0.9; Add: 0.9 ≤ CI ≤ 1; Ant: CI > 1)

Question: Which IC50 [3] does the source give for diacetoxyscirpenol [DAS] here?
Answer: 13.4 ± 1.79 nM

Question: What about the IC50 [4] of the same substance?
Answer: 3.66 ± 0.37 nM

Question: What about the IC50 [5] of the same substance?
Answer: 3.66 to 17.7 nM

Question: What about the IC50 [6] of the same substance?
Answer: 15 nM

Question: And the “combination index, silibinin 0.9 µM” value [7]?
Answer: 1.00 ± 0.04 Add

Question: And the “combination index, silibinin 1.7 µM” value [7]?
Answer: 1.23 ± 0.06 Ant

Question: And the “combination index, silibinin 3.4 µM” value [7]?
Answer: 1.21 ± 0.05 Ant

Question: And the “combination index, silibinin 6.8 µM” value [7]?
Answer: 1.50 ± 0.04 Ant

Question: And the “combination index, silibinin 13.6 µM” value [7]?
Answer: 1.56 ± 0.13 Ant

Question: What about the “combination index, silibinin 27.3 µM” value [7] of the same substance?
Answer: 1.48 ± 0.08 Ant

Question: And the “combination index, silibinin 54.5 µM” value [7]?
Answer: 1.15 ± 0.02 Ant

Question: What about the “combination index, silibinin 109.00 µM” value [7] of the same substance?
Answer: 1.14 ± 0.01 Ant

Question: What about the “type of interaction, silibinin 0.9 µM” value [7] of the same substance?
Answer: 1.00 ± 0.04 Add (key: Syn: Combination index (CI) < 0.9; Add: 0.9 ≤ CI ≤ 1; Ant: CI > 1)

Question: What about the “type of interaction, silibinin 1.7 µM” value [7] of the same substance?
Answer: 1.23 ± 0.06 Ant (key: Syn: Combination index (CI) < 0.9; Add: 0.9 ≤ CI ≤ 1; Ant: CI > 1)

Question: And the “type of interaction, silibinin 3.4 µM” value [7]?
Answer: 1.21 ± 0.05 Ant (key: Syn: Combination index (CI) < 0.9; Add: 0.9 ≤ CI ≤ 1; Ant: CI > 1)

Question: What about the “type of interaction, silibinin 6.8 µM” value [7] of the same substance?
Answer: 1.50 ± 0.04 Ant (key: Syn: Combination index (CI) < 0.9; Add: 0.9 ≤ CI ≤ 1; Ant: CI > 1)

Question: And the “type of interaction, silibinin 13.6 µM” value [7]?
Answer: 1.56 ± 0.13 Ant (key: Syn: Combination index (CI) < 0.9; Add: 0.9 ≤ CI ≤ 1; Ant: CI > 1)

Question: What about the “type of interaction, silibinin 27.3 µM” value [7] of the same substance?
Answer: 1.48 ± 0.08 Ant (key: Syn: Combination index (CI) < 0.9; Add: 0.9 ≤ CI ≤ 1; Ant: CI > 1)

Question: And the “type of interaction, silibinin 54.5 µM” value [7]?
Answer: 1.15 ± 0.02 Ant (key: Syn: Combination index (CI) < 0.9; Add: 0.9 ≤ CI ≤ 1; Ant: CI > 1)

Question: What about the “type of interaction, silibinin 109.00 µM” value [7] of the same substance?
Answer: 1.14 ± 0.01 Ant (key: Syn: Combination index (CI) < 0.9; Add: 0.9 ≤ CI ≤ 1; Ant: CI > 1)

Question: What about the IC50 [8] of the same substance?
Answer: 6.58 ± 0.36 nM

Question: What about the “metabolites found by non-target U-HPLC-MS analysis” value [9] of the same substance?
Answer: 15-monoacetoxyscirpenol, 4-monoacetoxyscirpenol, 7-hydroxy, 8β-hydroxy, and deepoxy-15- monoacetoxyscirpenol

Question: And the “transepithelial transport, Apical Medium” value [9]?
Answer: 29.61 ± 0.87^abc %

Question: What about the “transepithelial transport, Basolateral Medium” value [9] of the same substance?
Answer: 40.12 ± 0.50^f %

Question: What about the “transepithelial transport, Caco-2 Cells” value [9] of the same substance?
Answer: 0.02 ± 0.00^a %

Question: What about the “transepithelial transport, Raw 264.7 Cells” value [9] of the same substance?
Answer: 0.02 ± 0.00^a %

Question: And the “transepithelial transport, Total” value [9]?
Answer: 69.77 ± 0.99^cd %

Question: What about the IC50 [10] of the same substance?
Answer: 17.7 ± 0.66 nM

Question: What about the “combination index, mixture of T-2 (3.87 nM)” value (shortened to “combination index … (3.87 nM)”) [2] of the same substance?
Answer: 0.64 ± 0.01 Syn

Question: What about the “type of interaction, mixture of T-2 (3.87 nM)” value (shortened to “type of interaction … (3.87 nM)”) [2] of the same substance?
Answer: 0.64 ± 0.01 Syn (key: Syn: Combination index (CI) < 0.9; Add: 0.9 ≤ CI ≤ 1; Ant: CI > 1)

Question: With enniatin A1 [ENN-A1] as the substance, how does the “concentration with statistically significant decrease in viability of cells” value [1] read?
Answer: 1 µM

Question: And the “combination index, mixture of DAS (6.58 nM)” value [2]?
Answer: 0.79 ± 0.04 Syn

Question: What about the “combination index, mixture of HT-2 (21.22 nM)” value [2] of the same substance?
Answer: 0.93 ± 0.01 Add

Question: What about the “combination index … (3.87 nM)” value [2] of the same substance?
Answer: 1.27 ± 0.13 Ant

Question: And the “type of interaction, mixture of DAS (6.58 nM)” value [2]?
Answer: 0.79 ± 0.04 Syn (key: Syn: Combination index (CI) < 0.9; Add: 0.9 ≤ CI ≤ 1; Ant: CI > 1)

Question: And the “type of interaction, mixture of HT-2 (21.22 nM)” value [2]?
Answer: 0.93 ± 0.01 Add (key: Syn: Combination index (CI) < 0.9; Add: 0.9 ≤ CI ≤ 1; Ant: CI > 1)

Question: And the “type of interaction … (3.87 nM)” value [2]?
Answer: 1.27 ± 0.13 Ant (key: Syn: Combination index (CI) < 0.9; Add: 0.9 ≤ CI ≤ 1; Ant: CI > 1)

Question: For enniatin A [ENN-A], which “concentration with statistically significant decrease in viability of cells” value [1] is on record?
Answer: 1 µM

Question: And the “combination index, mixture of DAS (6.58 nM)” value [2]?
Answer: 0.83 ± 0.05 Syn

Question: What about the “combination index, mixture of HT-2 (21.22 nM)” value [2] of the same substance?
Answer: 0.80 ± 0.06 Syn

Question: And the “combination index … (3.87 nM)” value [2]?
Answer: 0.86 ± 0.07 Syn

Question: What about the “type of interaction, mixture of DAS (6.58 nM)” value [2] of the same substance?
Answer: 0.83 ± 0.05 Syn (key: Syn: Combination index (CI) < 0.9; Add: 0.9 ≤ CI ≤ 1; Ant: CI > 1)

Question: What about the “type of interaction, mixture of HT-2 (21.22 nM)” value [2] of the same substance?
Answer: 0.80 ± 0.06 Syn (key: Syn: Combination index (CI) < 0.9; Add: 0.9 ≤ CI ≤ 1; Ant: CI > 1)

Question: What about the “type of interaction … (3.87 nM)” value [2] of the same substance?
Answer: 0.86 ± 0.07 Syn (key: Syn: Combination index (CI) < 0.9; Add: 0.9 ≤ CI ≤ 1; Ant: CI > 1)
